Source: patent US10035801B2, “Pyrazolo compounds and uses thereof” (CONSTELLATION PHARMACEUTICALS, INC., priority 2013, dated 2018)

What follows are compounds tested against T1, KDM5A (Homo sapiens, UniProt P29375) (assay: KDM5 enzyme assay, KDM5A HTRF (Example 463)). Conditions: not given.
T1 construct: Full length KDM5A enzyme was expressed and purified inhouse; made in house
Type: biochemical

T1 sequence (P29375 whole entry): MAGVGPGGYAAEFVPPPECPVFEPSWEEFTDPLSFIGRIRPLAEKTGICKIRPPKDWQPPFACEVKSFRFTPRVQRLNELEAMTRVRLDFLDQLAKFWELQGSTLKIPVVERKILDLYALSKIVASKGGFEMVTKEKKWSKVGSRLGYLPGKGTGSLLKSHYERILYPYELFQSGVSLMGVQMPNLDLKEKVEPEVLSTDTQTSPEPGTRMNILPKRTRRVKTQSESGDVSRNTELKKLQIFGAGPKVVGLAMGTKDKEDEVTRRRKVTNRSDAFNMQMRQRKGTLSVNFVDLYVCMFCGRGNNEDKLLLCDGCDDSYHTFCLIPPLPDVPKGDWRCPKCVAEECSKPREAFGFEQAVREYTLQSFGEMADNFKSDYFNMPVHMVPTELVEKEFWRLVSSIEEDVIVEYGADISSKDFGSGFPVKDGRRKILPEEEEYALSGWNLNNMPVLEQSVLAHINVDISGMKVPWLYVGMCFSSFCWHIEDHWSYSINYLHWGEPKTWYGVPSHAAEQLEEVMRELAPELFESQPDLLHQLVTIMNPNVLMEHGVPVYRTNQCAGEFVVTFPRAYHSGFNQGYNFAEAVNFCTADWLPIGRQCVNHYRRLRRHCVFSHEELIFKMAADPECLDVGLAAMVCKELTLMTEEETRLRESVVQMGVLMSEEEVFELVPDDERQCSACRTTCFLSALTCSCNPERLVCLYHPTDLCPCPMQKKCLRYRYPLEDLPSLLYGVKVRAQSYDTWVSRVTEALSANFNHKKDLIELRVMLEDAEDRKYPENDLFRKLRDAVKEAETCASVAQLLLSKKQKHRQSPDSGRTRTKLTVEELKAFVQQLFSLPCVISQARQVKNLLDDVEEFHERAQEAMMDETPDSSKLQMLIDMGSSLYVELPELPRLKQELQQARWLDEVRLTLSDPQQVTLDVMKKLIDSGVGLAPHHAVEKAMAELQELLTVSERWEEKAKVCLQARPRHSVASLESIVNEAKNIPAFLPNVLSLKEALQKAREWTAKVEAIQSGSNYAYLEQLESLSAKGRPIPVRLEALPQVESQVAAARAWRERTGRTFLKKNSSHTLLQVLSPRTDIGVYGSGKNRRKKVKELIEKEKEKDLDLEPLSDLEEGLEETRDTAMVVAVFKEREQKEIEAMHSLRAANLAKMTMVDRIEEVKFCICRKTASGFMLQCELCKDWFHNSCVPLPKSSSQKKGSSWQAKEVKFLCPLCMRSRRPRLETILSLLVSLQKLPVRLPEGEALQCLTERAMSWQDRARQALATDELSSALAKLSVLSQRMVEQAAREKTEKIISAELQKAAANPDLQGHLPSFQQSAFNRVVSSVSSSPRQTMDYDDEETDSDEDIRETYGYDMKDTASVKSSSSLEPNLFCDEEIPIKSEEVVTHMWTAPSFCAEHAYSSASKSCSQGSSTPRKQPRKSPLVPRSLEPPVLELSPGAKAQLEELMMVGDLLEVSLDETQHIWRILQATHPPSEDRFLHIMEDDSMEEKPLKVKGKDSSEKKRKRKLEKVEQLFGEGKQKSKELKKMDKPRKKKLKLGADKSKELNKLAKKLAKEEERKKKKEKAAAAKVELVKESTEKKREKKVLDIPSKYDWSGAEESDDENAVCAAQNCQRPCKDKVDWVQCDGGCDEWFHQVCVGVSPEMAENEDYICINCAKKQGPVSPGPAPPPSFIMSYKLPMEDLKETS

| Compound | IC50 [µM] |
| --- | --- |
| N#Cc1cnn2c(=O)c(Br)c(-c3ccccc3)[nH]c12 [Example 45, 6-Bromo-7-oxo-5-phenyl-4,7-dihydropyrazolo[1,5-a]pyrimidine-3-carbonitrile] | 0.03 |
| CC(C)c1c(-c2cccnc2)[nH]c2c(C#N)cnn2c1=O [Example 91] | 0.012 |

Same assay, conditions: compounds of Examples 1-432; read-out: Example 463 Assay KDM5A HTRF IC50

| IC50 [µM] | Compound |
| --- | --- |
| 0.034 | CC(C)c1c(-c2ccc(-c3ccccc3)o2)[nH]c2c(C#N)cnn2c1=O [Example 59] |
| 0.019 | CC(C)c1c(-c2cnn(C(C)C)c2)[nH]c2c(C#N)cnn2c1=O [Example 60] |
| 0.01 | CC(C)c1c(-c2cncnc2)[nH]c2c(C#N)cnn2c1=O [Example 61] |
| 0.012 | Cc1cncc(-c2[nH]c3c(C#N)cnn3c(=O)c2C(C)C)c1 [Example 62] |
| 0.015 | CC(C)c1c(-c2ccn(C)n2)[nH]c2c(C#N)cnn2c1=O [Example 63] |
| 0.014 | CC(C)c1c(-c2ccccc2F)[nH]c2c(C#N)cnn2c1=O [Example 66] |
| 0.01 | CC(C)c1c(-c2ccc(C#N)cc2)[nH]c2c(C#N)cnn2c1=O [Example 67] |
| 0.013 | COc1ccc(-c2[nH]c3c(C#N)cnn3c(=O)c2C(C)C)cc1 [Example 68] |
| 0.021 | CC(C)c1c(-c2ccc(C(F)(F)F)cc2)[nH]c2c(C#N)cnn2c1=O [Example 69] |
| 0.0078 | CC(C)c1c(-c2ccc(F)cc2)[nH]c2c(C#N)cnn2c1=O [Example 70] |
| 0.0045 | CCc1c(-c2cnn(Cc3ccccc3)c2)[nH]c2c(C#N)cnn2c1=O [Example 71] |
| 0.01 | CC(C)c1c(-c2cnn(Cc3ccccc3)c2)[nH]c2c(C#N)cnn2c1=O [Example 72] |
| 0.0073 | CC(C)c1c(-c2cncc(Cl)c2)[nH]c2c(C#N)cnn2c1=O [Example 73] |
| 0.004 | CC(C)c1c(-c2cncc(F)c2)[nH]c2c(C#N)cnn2c1=O [Example 74] |
| 0.01 | C=C(C)c1[nH]c2c(C#N)cnn2c(=O)c1C(C)C [Example 75] |
| 0.006 | C=Cc1[nH]c2c(C#N)cnn2c(=O)c1C(C)C [Example 76] |
| 0.012 | CC(C)c1c(-c2ccnn2C)[nH]c2c(C#N)cnn2c1=O [Example 77] |

| IC50 [µM] | Compound |
| --- | --- |
| 0.0077 | CC(C)c1c(-c2cc(CO)co2)[nH]c2c(C#N)cnn2c1=O [Example 78] |
| 0.013 | CC(C)c1c(-c2cccc(C#N)c2)[nH]c2c(C#N)cnn2c1=O [Example 79] |
| 0.0068 | CC(C)c1c(-c2ccn[nH]2)[nH]c2c(C#N)cnn2c1=O [Example 80] |
| 0.0065 | CC(C)c1c(-c2ccco2)[nH]c2c(C#N)cnn2c1=O [Example 81] |
| 0.012 | CC(C)c1c(C2=CCOC2)[nH]c2c(C#N)cnn2c1=O [Example 82] |
| 0.012 | CC(C)c1c(-c2ccsc2)[nH]c2c(C#N)cnn2c1=O [Example 83] |
| 0.0083 | CC(C)c1c(-c2cccs2)[nH]c2c(C#N)cnn2c1=O [Example 84] |
| 0.012 | CC(C)c1c(-c2cnn(C)c2)[nH]c2c(C#N)cnn2c1=O [Example 85] |
| 0.0045 | Cc1ccc(-c2[nH]c3c(C#N)cnn3c(=O)c2C(C)C)o1 [Example 86] |
| 0.0075 | CC(C)c1c(-c2ccc(CO)o2)[nH]c2c(C#N)cnn2c1=O [Example 87] |
| 0.014 | CC(C)c1c(-c2cccc(C(F)(F)F)c2)[nH]c2c(C#N)cnn2c1=O [Example 88] |
| 0.01 | COc1cccc(-c2[nH]c3c(C#N)cnn3c(=O)c2C(C)C)c1 [Example 89] |
| 0.009 | CC(C)c1c(-c2cccc(F)c2)[nH]c2c(C#N)cnn2c1=O [Example 90] |
| 0.0055 | CCc1c(-c2cn[nH]c2)[nH]c2c(C#N)cnn2c1=O [Example 92] |
| 0.013 | CC(C)c1c(-c2cnn(S(C)(=O)=O)c2)[nH]c2c(C#N)cnn2c1=O [Example 93] |
| 0.012 | CC(C)c1c(-c2cnn(C3CCCC3)c2)[nH]c2c(C#N)cnn2c1=O [Example 94] |

Further lines, the compound ahead of its results:

| Compound | IC50 [µM] |
| --- | --- |
| CCc1c(C(=O)NC)n(C)c2c(C#N)cnn2c1=O [Example 27, 3-cyano-6-ethyl-N,4-dimethyl-7-oxo-4,7-dihydropyrazolo[1,5-a]pyrimidine-5-carboxamide] | 3.9 |
| CCc1c(-c2nc(C)no2)[nH]c2c(C#N)cnn2c1=O [Example 28, 6-ethyl-5-(3-methyl-1,2,4-oxadiazol-5-yl)-7-oxo-4H-pyrazolo[1,5-a]pyrimidine-3-carbonitrile] | 0.018 |
| CCc1c(-c2nnc(C)o2)[nH]c2c(C#N)cnn2c1=O [Example 29, 6-ethyl-5-(5-methyl-1,3,4-oxadiazol-2-yl)-7-oxo-4,7-dihydropyrazolo[1,5-a]pyrimidine-3-carbonitrile] | 0.016 |
| CCc1c(-c2ncc[nH]2)[nH]c2c(C#N)cnn2c1=O [Example 30, 6-ethyl-5-(1H-imidazol-2-yl)-7-oxo-4,7-dihydropyrazolo[1,5-a]pyrimidine-3-carbonitrile] | 0.012 |
| CCc1c(C(=O)NCC(=O)c2ccccc2)[nH]c2c(C#N)cnn2c1=O [Example 31, 3-cyano-6-ethyl-7-oxo-N-(2-oxo-2-phenylethyl)-4,7-dihydropyrazolo[1,5-a]pyrimidine-5-carboxamide] | 0.025 |
| CCc1c(-c2ncc(-c3ccccc3)o2)[nH]c2c(C#N)cnn2c1=O [Example 32, 6-ethyl-7-oxo-5-(5-phenyloxazol-2-yl)-4,7-dihydropyrazolo[1,5-a]pyrimidine-3-carbonitrile] | 0.015 |
| N#Cc1cnn2c(=O)c(CC(F)F)c(-c3ccccc3)[nH]c12 [Example 33, 6-(2,2-Difluoroethyl)-7-oxo-5-phenyl-4H-pyrazolo[1,5-a]pyrimidine-3-carbonitrile] | 0.0093 |
| N#Cc1cnn2c(=O)c(C3CCC3)c(-c3ccccc3)[nH]c12 [Example 34, 6-Cyclobutyl-7-oxo-5-phenyl-4H-pyrazolo[1,5-a]pyrimidine-3-carbonitrile] | 0.0095 |
| N#Cc1cnn2c(=O)c(C3CCC3)c(-c3cn[nH]c3)[nH]c12 [Example 35, 6-Cyclobutyl-7-oxo-5-(1H-pyrazol-4-yl)-4H-pyrazolo[1,5-a]pyrimidine-3-carbonitrile] | 0.03 |
| N#Cc1cnn2c(=O)c(C3CCC3)c(-c3cnn(C4CCCCC4)c3)[nH]c12 [Example 36, 6-Cyclobutyl-5-(1-cyclohexylpyrazol-4-yl)-7-oxo-4H-pyrazolo[1,5-a]pyrimidine-3-carbonitrile] | 0.0104 |
| C#CCc1c(-c2ccccc2)[nH]c2c(C#N)cnn2c1=O [Example 37, 7-Oxo-5-phenyl-6-(prop-2-yn-1-yl)-4,7-dihydropyrazolo[1,5-a]pyrimidine-3-carbonitrile] | 0.024 |
| C#CC(C)c1c(-c2cnn(C(C)C)c2)[nH]c2c(C#N)cnn2c1=O (stereo not drawn) [Example 38, 5-(1-isopropylpyrazol-4-yl)-6-(1-methylprop-2-ynyl)-7-oxo-4H-pyrazolo[1,5-a]pyrimidine-3-carbonitrile] | 0.036 |
| CC(c1c(-c2ccccc2)[nH]c2c(C#N)cnn2c1=O)C1CC1 (stereo not drawn) [Example 39, 6-(1-cyclopropylethyl)-7-oxo-5-phenyl-4H-pyrazolo[1,5-a]pyrimidine-3-carbonitrile] | 0.128 |
| CCc1c(-c2cccc(-c3ccccc3)c2)[nH]c2c(C#N)cnn2c1=O [Example 40, 5-([1,1′-Biphenyl]-3-yl)-6-ethyl-7-oxo-4,7-dihydropyrazolo[1,5-a]pyrimidine-3-carbonitrile] | 0.01 |
| CCc1c(-c2cccc(Nc3ccc(F)cc3)c2)[nH]c2c(C#N)cnn2c1=O [Example 41, 6-Ethyl-5-(3-((4-fluorophenyl)amino)phenyl)-7-oxo-4,7-dihydropyrazolo[1,5-a]pyrimidine-3-carbonitrile] | 0.019 |
| CC(C)c1c(-c2cccc(N3CCCC3=O)c2)[nH]c2c(C#N)cnn2c1=O [Example 42, 6-isopropyl-7-oxo-5-(3-(2-oxopyrrolidin-1-yl)phenyl)-4,7-dihydropyrazolo[1,5-a]pyrimidine-3-carbonitrile] | 0.021 |

| Compound | IC50 [µM] |
| --- | --- |
| N#Cc1cnn2c(=O)cc(-c3cc(N)cc(-c4ccccc4)c3)[nH]c12 [Example 43, 5-(3-amino-5-phenyl-phenyl)-7-oxo-4H-pyrazolo[1,5-a]pyrimidine-3-carbonitrile] | 0.083 |
| CC(=O)Nc1cc(-c2ccccc2)cc(-c2cc(=O)n3ncc(C#N)c3[nH]2)c1 [Example 44, N-[3-(3-Cyano-7-oxo-4H-pyrazolo[1,5-a]pyrimidin-5-yl)-5-phenyl-phenyl]acetamide] | 0.368 |
| Cc1[nH]c2c(C#N)cnn2c(=O)c1-c1ccco1 [Example 46, 6-(2-Furyl)-5-methyl-7-oxo-4H-pyrazolo[1,5-a]pyrimidine-3-carbonitrile] | 2.9 |
| CC(C)c1c(Nc2ccccc2)[nH]c2c(C#N)cnn2c1=O [Example 47, 6-isopropyl-7-oxo-5-(phenylamino)-4,7-dihydropyrazolo[1,5-a]pyrimidine-3-carbonitrile] | 0.024 |
| CC(C)c1c(N2CCCCC2)[nH]c2c(C#N)cnn2c1=O [Example 48, 6-isopropyl-7-oxo-5-(piperidin-1-yl)-4,7-dihydropyrazolo[1,5-a]pyrimidine-3-carbonitrile] | 0.084 |
| CC(C)c1c(Oc2ccccc2)[nH]c2c(C#N)cnn2c1=O [Example 49, 6-isopropyl-7-oxo-5-phenoxy-4,7-dihydropyrazolo[1,5-a]pyrimidine-3-carbonitrile] | 0.025 |
| CC(C)c1c(-c2coc3ccccc23)[nH]c2c(C#N)cnn2c1=O [Example 50] | 0.02 |
| CC(C)c1c(-c2ccn(-c3ccccc3)n2)[nH]c2c(C#N)cnn2c1=O [Example 51] | 0.0083 |
| CC(C)c1c(-c2ccc(C3CC3)o2)[nH]c2c(C#N)cnn2c1=O [Example 52] | 0.0058 |
| Cc1occc1-c1[nH]c2c(C#N)cnn2c(=O)c1C(C)C [Example 53] | 0.017 |
| CC(C)c1c(-c2cnn(-c3ccccc3)c2)[nH]c2c(C#N)cnn2c1=O [Example 54] | 0.006 |
| CCn1cc(-c2[nH]c3c(C#N)cnn3c(=O)c2C(C)C)cn1 [Example 55] | 0.011 |
| CC(C)c1c(-c2ccc(=O)n(C)c2)[nH]c2c(C#N)cnn2c1=O [Example 56] | 0.016 |
| CCc1c(-c2ccco2)[nH]c2c(C#N)cnn2c1=O [Example 57] | 0.0057 |
| CC(C)c1c(-c2cc(C3CC3)co2)[nH]c2c(C#N)cnn2c1=O [Example 58] | 0.0073 |
